Measurements published in PMC7284416, “The Product Specificities of Maize Terpene Synthases TPS4 and TPS10 Are Determined Both by Active Site Amino Acids and Residues Adjacent to the Active Site” (Plants, 2020).

T1: TPS4 (tps4-B73) (Zea mays, UniProt Q6JD73)
T1 construct: expressed in E. coli BL21(DE3) from pHIS8-3, N-terminal His8 tag kept, Ni-NTA purified; forward primer starts the ORF at codons for SSTFHPSL, native C-terminus FVEPIPE
T1 sequence (Q6JD73 21-554): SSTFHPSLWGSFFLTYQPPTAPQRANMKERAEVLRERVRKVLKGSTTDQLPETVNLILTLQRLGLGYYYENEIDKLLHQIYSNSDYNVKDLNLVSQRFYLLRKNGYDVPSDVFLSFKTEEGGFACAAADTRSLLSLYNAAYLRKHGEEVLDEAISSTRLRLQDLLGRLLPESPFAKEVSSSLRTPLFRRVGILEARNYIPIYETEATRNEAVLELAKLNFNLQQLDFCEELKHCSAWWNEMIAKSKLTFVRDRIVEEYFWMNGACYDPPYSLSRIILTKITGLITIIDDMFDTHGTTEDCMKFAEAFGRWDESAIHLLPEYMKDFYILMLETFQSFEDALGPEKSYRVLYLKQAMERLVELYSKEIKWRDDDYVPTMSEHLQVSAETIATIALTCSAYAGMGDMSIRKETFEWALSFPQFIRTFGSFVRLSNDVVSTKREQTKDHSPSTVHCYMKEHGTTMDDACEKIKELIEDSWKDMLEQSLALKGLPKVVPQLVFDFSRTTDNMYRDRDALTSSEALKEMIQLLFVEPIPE

T2: TPS4 (tps4-B73) (Zea mays, UniProt Q6JD73, I411F/R442K, form not given)
T2 construct: expressed in E. coli BL21(DE3) from pHIS8-3, N-terminal His8 tag kept, Ni-NTA purified; forward primer starts the ORF at codons for SSTFHPSL, native C-terminus FVEPIPE
T2 sequence (Q6JD73 21-554 I411F/R442K): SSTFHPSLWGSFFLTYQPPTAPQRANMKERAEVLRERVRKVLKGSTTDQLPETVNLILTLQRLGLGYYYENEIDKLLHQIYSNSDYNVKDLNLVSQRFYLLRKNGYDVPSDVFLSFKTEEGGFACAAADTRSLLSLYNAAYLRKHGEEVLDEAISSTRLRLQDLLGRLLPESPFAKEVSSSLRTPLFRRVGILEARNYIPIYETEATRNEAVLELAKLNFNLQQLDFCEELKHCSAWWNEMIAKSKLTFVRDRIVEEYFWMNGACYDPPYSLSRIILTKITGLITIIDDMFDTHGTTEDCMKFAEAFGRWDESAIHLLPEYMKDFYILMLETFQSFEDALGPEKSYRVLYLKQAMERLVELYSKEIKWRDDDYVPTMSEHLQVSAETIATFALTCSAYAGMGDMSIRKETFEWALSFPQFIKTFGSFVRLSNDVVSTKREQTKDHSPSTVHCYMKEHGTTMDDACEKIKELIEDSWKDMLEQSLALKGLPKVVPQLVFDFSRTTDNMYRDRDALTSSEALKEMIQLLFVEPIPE

T3: TPS10 (tps10-B73) (Zea mays, UniProt Q2NM15)
T3 construct: expressed in E. coli BL21(DE3) from pHIS8-3 (NcoI/EcoRI), His tag kept, Ni-NTA purified; printed forward primer codes for MPPPS at the N-terminus
T3 sequence (Q2NM15 1-533): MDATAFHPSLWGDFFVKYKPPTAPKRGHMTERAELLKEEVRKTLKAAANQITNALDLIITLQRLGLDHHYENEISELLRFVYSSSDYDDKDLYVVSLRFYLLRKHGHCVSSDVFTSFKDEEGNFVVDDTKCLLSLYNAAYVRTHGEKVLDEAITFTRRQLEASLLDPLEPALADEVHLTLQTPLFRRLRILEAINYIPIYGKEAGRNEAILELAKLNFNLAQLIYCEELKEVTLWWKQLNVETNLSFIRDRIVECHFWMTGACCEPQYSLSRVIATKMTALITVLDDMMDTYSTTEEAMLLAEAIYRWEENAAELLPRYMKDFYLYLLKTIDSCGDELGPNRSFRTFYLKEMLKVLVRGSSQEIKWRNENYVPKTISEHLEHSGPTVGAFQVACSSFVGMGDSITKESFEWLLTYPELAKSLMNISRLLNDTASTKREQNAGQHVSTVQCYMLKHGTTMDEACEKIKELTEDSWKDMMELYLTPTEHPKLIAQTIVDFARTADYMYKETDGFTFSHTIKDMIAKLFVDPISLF


Key:
[1] = molecular target: T1, TPS4 (tps4-B73); test: [[…]-3H]FPP turnover, pentane-extracted products, scintillation counting; assay type: biochemical; details: 10 mM MgCl2, 10 mM Mopso pH 7.0, 1 mM DTT, 10% glycerol, 30 °C; labelled compound; read-out: TPS4-c17
[2] = molecular target: T2, TPS4 (tps4-B73); test: as above; assay type: biochemical; details: 10 mM MgCl2, 10 mM Mopso pH 7.0, 1 mM DTT, 10% glycerol, 30 °C; labelled compound; read-out: TPS4-c17 R442K + I411F
[3] = molecular target: T3, TPS10 (tps10-B73); test: as above; assay type: biochemical; details: 10 mM MgCl2, 10 mM Mopso pH 7.0, 1 mM DTT, 10% glycerol, 30 °C; labelled compound
[4] = substrate: CC(C)=CCC/C(C)=C/CC/C(C)=C/CO[P@@](=O)(O)OP(=O)(O)O; test: purified protein; assay type: biochemical, Zea mays; details: 10 mM MgCl2, 10 mM Mopso pH 7.0, 1 mM DTT, 10% glycerol, 30 °C, labelled compound

| Km [1] [nM] | Km [2] [nM] | Km [3] [µM] | Molecule | Km [4] [µM] | kcat [4] [s⁻¹] |
| --- | --- | --- | --- | --- | --- |
| 2100 ± 300 | 2300 ± 300 | 3.2 ± 0.5 | CC(C)=CCC/C(C)=C/CC/C(C)=C/CO[P@@](=O)(O)OP(=O)(O)O [(E,E)-farnesyl diphosphate] |  |  |
|  |  |  | TPS4 (tps4-B73) (Zea mays) (protein, expressed in E. coli BL21(DE3) from pHIS8-3, N-terminal His8 tag kept, Ni-NTA purified; forward primer starts the ORF at codons for SSTFHPSL, native C-terminus FVEPIPE) SSTFHPSLWGSFFLTYQPPTAPQRANMKERAEVLRERVRKVLKGSTTDQLPETVNLILTLQRLGLGYYYENEIDKLLHQIYSNSDYNVKDLNLVSQRFYLLRKNGYDVPSDVFLSFKTEEGGFACAAADTRSLLSLYNAAYLRKHGEEVLDEAISSTRLRLQDLLGRLLPESPFAKEVSSSLRTPLFRRVGILEARNYIPIYETEATRNEAVLELAKLNFNLQQLDFCEELKHCSAWWNEMIAKSKLTFVRDRIVEEYFWMNGACYDPPYSLSRIILTKITGLITIIDDMFDTHGTTEDCMKFAEAFGRWDESAIHLLPEYMKDFYILMLETFQSFEDALGPEKSYRVLYLKQAMERLVELYSKEIKWRDDDYVPTMSEHLQVSAETIATIALTCSAYAGMGDMSIRKETFEWALSFPQFIRTFGSFVRLSNDVVSTKREQTKDHSPSTVHCYMKEHGTTMDDACEKIKELIEDSWKDMLEQSLALKGLPKVVPQLVFDFSRTTDNMYRDRDALTSSEALKEMIQLLFVEPIPE | 3.8 ± 0.5 | 0.0105 ± 0.0006 |
